# Test results as given in patent US12685490B2 (The Board of Trustees of the Leland Stanford Junior …, priority 2020, dated 2026).
# Like-named read-outs stand apart in the source and are kept apart here. Residues, ends and D or L forms follow the SMILES beside them.
# What was measured:
# IAPP [1] = biological target: T1, IAPP (Homo sapiens, UniProt P10997); test: Thioflavin T (ThT) binding assay of IAPP fibrillogenesis; format: biochemical; details: for effect on IAPP amyloid self-assembly (fibrillogenesis): IAPP/peptide 1/1
# T1 construct: made in house; host or cells: chemical synthesis (Fmoc solid-phase, Rink resin)
# T1 sequence (P10997 34-70 limits assumed): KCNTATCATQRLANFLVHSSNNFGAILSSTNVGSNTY
# Procedure: Of note, an incubation of LL-37 alone was also included. At the indicated time points aliquots were mixed with the ThT solution consisting of 20 μM ThT in 0.05 M glycine/NaOH (pH 8.5) and binding was determined by measuring fluorescence emission at 486 nm upon excitation at 450 nm using a Multilabel reader VictorX3 (Perkin Elmer Life Sciences). […] An aliquot of a solution consisting mostly of IAPP fibrils (fIAPP) based on ThT binding and TEM (FIGS. 18-19) (7 days aged IAPP (16.5 μM) made as above) was added to the incubations resulting in a final seed (fIAPP) concentration of 1.65 μM. Incubations of (unseeded) IAPP alone (16.5 μM) and of 10% fIAPP alone were included as controls. ThT binding was determined at the indicated time points as above. […] Solutions containing (unseeded) IAPP alone (16.5 μM), IAPP seeded with fIAPP (10%), and IAPP seeded with LL-37-treated fIAPP (10%) were made in ThT assay buffer and kinetics of fibrillogenesis were determined by the ThT binding assay as described above.
# [2] = system: IAPP cytotoxicity in RIN5fm cells; test: MTT reduction assay: formation of β-cell damaging IAPP assemblies; format: cell-based, rat
# Procedure: (§1) Briefly, RIN5fm cells were cultured and plated in 96-well plates as described. Solutions of IAPP alone and its mixtures with peptides were aged in ThT assay buffer as described under “ThT binding assays”. At the indicated incubation time points (24 h or 7 days) aliquots were diluted with cell culture medium and added to the cells. Following incubation with the cells for ~20 h (37° C., humified atmosphere containing 5% CO2), cell damage was verified by the MTT reduction assay.
# Fluos-IAPP = biological target: T2, Fluos-IAPP (Homo sapiens, UniProt P10997); test: Fluorescence spectroscopic titrations; format: binding; details: for Kd: pH 7.4, mean (SD) of 3 binding curves, read-out: app. Kd
# T2 construct: made in house; host or cells: chemical synthesis
# T2 sequence (P10997 34-70 limits assumed): T1 sequence (P10997 34-70 limits assumed)
# Procedure: Fluorescence spectroscopic titration studies were performed with a JASCO FP-6500 fluorescence spectrophotometer using a previously described experimental protocol. Briefly, excitation was at 492 nm and emission spectra were recorded between 500 and 600 nm. […] For all experiments, freshly made stocks of peptides and their fluorescently labeled analogs in HFIP were used. Measurements were performed in 10 mM sodium phosphate buffer (pH 7.4) containing 1% HFIP within 2-5 min following solution preparation at room temperature. Of note, under these conditions freshly made Fluos-IAPP (5 nM) solutions consist mostly of monomers. App. Kds were calculated using 1/1 binding models as previously described and are means (±SD) of three binding curves.
# RIN5fm cells = format: cell-based, rat
# Procedure: as §1
# IAPP [3] = biological target: T1, IAPP; test: Far-UV CD spectroscopy of IAPP conformation and misfolding; details: 1/1, 5 μM each, pH 7.4
# Procedure: Far-UV CD studies were performed using a Jasco 715 spectropolarimeter. Spectra were recorded at room temperature between 195 and 250 nm, at 0.1 nm intervals, and with a response time of 1 second. Each spectrum is an average of 3 spectra. All CD studies were performed in aqueous 10 mM sodium phosphate buffer (pH 7.4) containing 1% HFIP (CD assay buffer) at room temperature; this assay system has been earlier developed and found to be suitable for following kinetics of IAPP (5 μM) misfolding into β-sheets and amyloid fibrils alone or in the presence of inhibitors. Briefly, peptide stocks in HFIP were freshly made (4° C.), diluted with assay buffer (room temperature) at the indicated concentrations within the cuvette, and following gentle mixing spectra were measured immediately or at the indicated incubation time points. […] The CD spectrum of IAPP at the incubation time point of 24 h (endpoint) was measured after gentle mixing to re-dissolve precipitated aggregates. The CD spectrum of the buffer was always subtracted from the CD spectra of the peptide solutions.
# IAPP [4] = biological target: T1, IAPP; test: Cross-linking, NuPAGE and Western blot; details: IAPP 30 μM, 1/1, pH 7.4
# Procedure: Cross-linking studies were preformed using a previously developed assay system. […] Solutions were cross-linked using 25% aqueous glutaraldehyde (Sigma-Aldrich) and 10% aqueous trichloroacetic acid (TCA) was used to precipitate cross-linked peptides. Pellets were dissolved in reducing NuPAGE sample buffer, boiled for 5 min, and subjected to NuPAGE electrophoresis in 4-12% Bis-Tris gels with MES running buffer (Invitrogen). The same volume of each solution (same IAPP amount) was loaded in all lanes. Peptides were blotted using a XCell II Blot Module blotting system (Invitrogen).
# [5] = system: autoimmune diabetes in NOD mice; details: prediabetic NOD mice; cited from earlier work
# [6] = biological target: T3, IAPP monomers and fibrils (Homo sapiens, UniProt P10997); test: Dot blot analysis; format: binding; details: FAM-LL-37 200 nM, IAPP 40 μg spotted
# T3 construct: made in house; host or cells: chemical synthesis (Fmoc solid-phase, Rink resin)
# T3 sequence (P10997 34-70 limits assumed): T1 sequence (P10997 34-70 limits assumed)
# Procedure: IAPP monomers or IAPP fibrils (fIAPP) containing solutions (different amounts up to 40 μg) were spotted onto a nitrocellulose membrane. These solutions were prepared by incubating an IAPP solution (1 mg/ml) in ThT assay buffer for 0 h (“monomers”) or 24 h (“fibrils”); the presence of fibrils was confirmed by ThT binding and TEM (not shown). The membrane was washed with TBSn (20 mM Tris/HCl, 150 mM NaCl and 0.05% Tween-20), blocked with 5% milk in TBSn overnight at 10° C., and washed again with TBSn. […] Following washings with incubation buffer and TBSn, bound FAM-LL-37 was visualized with a LAS-4000mini instrument (Fujifilm). Of note, glucagon fibrils were spotted as well to control for the specificity of the observed strong binding of FAM-LL-37 to fIAPP (not shown). Glucagon fibrils were made by incubating glucagon in 10 mM HCl (2 μg/μl) (10 days) followed by neutralization with 10 mM NaOH; ThT binding and TEM confirmed fibril formation (not shown). The ThT buffer alone was also spotted to control for NSB. In addition, to control for the interference of fibril autofluorescence, a membrane containing spotted fIAPP which had been incubated in buffer alone w/o FAM-LL-37 was included in each assay; in general, fIAPP autofluorescence contributed up to 25% of the total amount of fluorescence observed in fIAPP bound to FAM-LL-37.
# [7] = aged IAPP/peptide mixtures 1/1, RIN5fm cells
molecule,measurement,setting,value
CC[C@H](C)[C@H](NC(=O)[C@H](CCCCN)NC(=O)[C@H](CCC(=O)O)NC(=O)[C@H](CCCCN)NC(=O)[C@H](CO)NC(=O)[C@H](CCCCN)NC(=O)[C@H](CCCNC(=N)N)NC(=O)[C@H](Cc1ccccc1)NC(=O)[C@H](Cc1ccccc1)NC(=O)[C@H](CC(=O)O)NC(=O)CNC(=O)[C@H](CC(C)C)NC(=O)[C@@H](N)CC(C)C)C(=O)NCC(=O)O [LL-37(1-14)] (H-LLGDFFRKSKEKIG-OH; N-terminus assumed),effect on IAPP amyloid self-assembly (fibrillogenesis),IAPP [1]; IAPP 16.5 μM,unable to interfere
same,effect on formation of cytotoxic IAPP assemblies (cell-damaging effects),[2]; [7],unable to interfere
same,Kd,Fluos-IAPP; Fluos-IAPP 5 nM,2540 nM
same,weaker binding to Fluos-IAPP,Fluos-IAPP; app. Kd comparison,~ 30 fold
CC[C@H](C)[C@H](NC(=O)[C@H](CCCNC(=N)N)NC(=O)[C@H](CCC(N)=O)NC(=O)[C@@H](NC(=O)[C@@H](NC(=O)[C@H](CCCNC(=N)N)NC(=O)[C@H](CCCCN)NC(=O)[C@H](Cc1ccccc1)NC(=O)[C@H](CCC(=O)O)NC(=O)[C@@H](N)CCCCN)[C@@H](C)CC)C(C)C)C(=O)N[C@@H](CCCCN)C(=O)N[C@@H](CC(=O)O)C(=O)N[C@@H](Cc1ccccc1)C(=O)N[C@@H](CC(C)C)C(=O)N[C@@H](CCCNC(=N)N)C(=O)N[C@@H](CC(N)=O)C(=O)N[C@@H](CC(C)C)C(=O)N[C@H](C(=O)N1CCC[C@H]1C(=O)N[C@@H](CCCNC(=N)N)C(=O)N[C@H](C(=O)N[C@@H](CCC(=O)O)C(=O)N[C@@H](CO)C(=O)O)[C@@H](C)O)C(C)C [LL-37(15-37)] (H-KEFKRIVQRIKDFLRNLVPRTES-OH; N-terminus assumed),effect on IAPP amyloid self-assembly (fibrillogenesis),IAPP [1]; IAPP 16.5 μM,unable to interfere
same,effect on formation of cytotoxic IAPP assemblies (cell-damaging effects),[2]; [7],unable to interfere
same,Kd,Fluos-IAPP; Fluos-IAPP 5 nM,31.9 nM
CC[C@H](C)[C@H](NC(=O)[C@H](CCCCN)NC(=O)[C@H](CCC(=O)O)NC(=O)[C@H](CCCCN)NC(=O)[C@H](CO)NC(=O)[C@H](CCCCN)NC(=O)[C@H](CCCNC(=N)N)NC(=O)[C@H](Cc1ccccc1)NC(=O)[C@H](Cc1ccccc1)NC(=O)[C@H](CC(=O)O)NC(=O)CNC(=O)[C@H](CC(C)C)NC(=O)[C@@H](N)CC(C)C)C(=O)NCC(=O)N[C@@H](CCCCN)C(=O)N[C@@H](CCC(=O)O)C(=O)N[C@@H](Cc1ccccc1)C(=O)N[C@@H](CCCCN)C(=O)N[C@@H](CCCNC(=N)N)C(=O)N[C@H](C(=O)N[C@H](C(=O)N[C@@H](CCC(N)=O)C(=O)N[C@@H](CCCNC(=N)N)C(=O)N[C@H](C(=O)N[C@@H](CCCCN)C(=O)N[C@@H](CC(=O)O)C(=O)N[C@@H](Cc1ccccc1)C(=O)N[C@@H](CC(C)C)C(=O)N[C@@H](CCCNC(=N)N)C(=O)N[C@@H](CC(N)=O)C(=O)N[C@@H](CC(C)C)C(=O)N[C@H](C(=O)N1CCC[C@H]1C(=O)N[C@@H](CCCNC(=N)N)C(=O)N[C@H](C(=O)N[C@@H](CCC(=O)O)C(=O)N[C@@H](CO)C(=O)O)[C@@H](C)O)C(C)C)[C@@H](C)CC)C(C)C)[C@@H](C)CC [LL-37],effect on IAPP amyloid self-assembly (fibrillogenesis),IAPP [1]; IAPP 16.5 μM,effectively suppressed IAPP amyloid self-assembly
same,effect on seeding of IAPP fibrillogenesis by fIAPP (10%),"IAPP [1]; IAPP 16.5 μM, LL-37 1/1, 10% fIAPP seeds",fully suppressed
same,seeding ability of fIAPP after treatment with peptide,"IAPP [1]; fIAPP incubated with LL-37 (10-fold) for 24 h, used as 10% seeds",converts them into seeding incompetent assemblies
same,effect on formation of cytotoxic IAPP assemblies (cell-damaging effects),[2],effectively suppressed formation of cytotoxic IAPP assemblies
same,IC50,[2]; rat,17 nM
same,cytotoxicity of peptide alone,RIN5fm cells,not cytotoxic
same,increase of Fluos-IAPP fluorescence emission,"Fluos-IAPP; Fluos-IAPP 5 nM, 100-fold molar excess of LL-37",322%
same,Kd,Fluos-IAPP; Fluos-IAPP 5 nM,88.1 nM
same,effect on IAPP conformation / misfolding,IAPP [3],strong time-dependent increase of random coil contents and no precipitation occurred
same,hetero-assemblies with IAPP by cross-linking,IAPP [4],formation of IAPP-LL-37 hetero-tetramers
"CC[C@H](C)[C@H](NC(=O)[C@H](CCCCN)NC(=O)[C@H](CO)NC(=O)[C@H](Cc1ccccc1)NC(=O)[C@H](CCC(=O)O)NC(=O)[C@H](Cc1ccccc1)NC(=O)[C@H](CCCNC(=N)N)NC(=O)[C@H](CC(C)C)NC(=O)[C@H](CCCCN)NC(=O)[C@H](CC(C)C)NC(=O)CN)C(=O)N[C@@H](CCCCN)C(=O)NCC(=O)N[C@@H](CCC(=O)O)C(=O)N[C@@H](Cc1ccccc1)C(=O)N[C@@H](CC(C)C)C(=O)N[C@@H](CCCCN)C(=O)N[C@H](C(=O)N1CCC[C@H]1C(=O)N[C@@H](CCC(=O)O)C(=O)N[C@H](C(=O)N[C@@H](CCCNC(=N)N)C(=O)N[C@@H](Cc1ccccc1)C(=O)N[C@@H](CCCNC(=N)N)C(=O)N[C@@H](CC(=O)O)C(=O)N[C@H](C(=O)N[C@@H](CCCCN)C(=O)N[C@@H](CC(C)C)C(=O)N[C@@H](CCCCN)C(=O)N[C@@H](CC(=O)O)C(=O)N[C@@H](CC(N)=O)C(=O)N[C@@H](CCCNC(=N)N)C(=O)N[C@H](C(=O)N[C@@H](CO)C(=O)N[C@H](C(=O)N[C@@H](CCC(N)=O)C(=O)N[C@@H](CCCNC(=N)N)C(=O)O)C(C)C)[C@@H](C)CC)[C@@H](C)CC)C(C)C)[C@@H](C)O [scrLL-37, reference compound] (H-GLKLRFEFSKIKGEFLKTPEVRFRDIKLKDNRISVQR-OH)",effect on IAPP cytotoxicity,"[2]; up to 10-fold molar excess of peptide, 7 days aged, RIN5fm cells",unable to inhibit
CRAMP,effect on autoimmune diabetes,[5],dampening the incidence of autoimmune diabetes
FAM-LL-37: N-amino-terminal fluorescein labeled LL-37 with a 6-aminohexanoic acid spacer between FAM and the N-terminus,binding to IAPP monomers and fibrils,[6],bound both IAPP fibrils and monomers
